System: L-NAME-treated renin transgenic rats (TGR(mRen2)27)
Assay: L-NAME-treated transgenic renin rat (TGR(mRen2)27): mortality and proteinuria
Format: in vivo
Details: finerenone 10 mg/kg od, compound of the formula (X) 0.3 mg/kg od, alone or combined; for All-cause mortality during the study period / Survival rate over the study period: L-NAME-treated TGR(mRen2)27 renin rats, daily gavage; for All-cause mortality during the study period: 15 animals per group, placebo mortality 40%; for Survival rate over the study period: study terminated after 40% of placebo animals had died; for Reduction of proteinuria, measured as protein/creatinine quotient in urine / Protein/creatine quotient - % of group A (proteinuria in % reduction from placebo): L-NAME-treated renin transgenic rats; for Reduction of proteinuria, measured as protein/creatinine quotient in urine: versus placebo; for Protein/creatine quotient - % of group A (proteinuria in % reduction from placebo): urine, end of the study, mean ± SEM, relative to placebo group A
From the text: 3.) L-NAME-treated transgenic renin rat (TGR(mRen2)27)
The transgenic renin rat ‘TGR(mRen2)27’ is a hypertensive rat line developed by Mullins and Ganten which overexpresses the Ren-2 gene of the mouse. Additional administration of the nitrogen monoxide synthase inhibitor L-NAME induces endothelial dysfunction which increases morbidity and mortality in this model. Unless subjected to life-long antihypertensive therapy, homozygous animals die of secondary complications such as heart and kidney failure or stroke.
Male TGR(mRen2)27 renin rats aged 10 to 20 weeks are randomized to different pharmacological treatment groups and a placebo group. In addition, the nitrogen monoxide synthase inhibitor L-NAME is administered via the drinking water in a concentration of 30 to 100 mg/l. During the entire experiment, drinking water and feed are available ad libitum to the animals. The substances are administered via the feed or daily by gavage for 4-10 weeks. Animals treated in the same way but receiving either only the solvent or the feed without test substance serve as placebo group. During the experiment, the systolic blood pressure is determined at regular intervals using a tail cuff, and proteinuria and urine electrolyte composition are determined by collecting the urine in metabolic cages. At the end of the experiment, haemodynamic parameters (blood pressure, heart rate, inotropism [dp/dt], relaxation time [tau], maximum left ventricular pressure, left ventricular end-diastolic pressure [LVEDP]) are measured, and the weights of heart, kidney and lung are determined, protein elimination and biomarkers (e.g. ANP, RIA Kit RK 005-24, Phoenix Pharmaceuticals, Inc., USA, cGMP, RIA Kit RE29075, IBL International GmbH, Hamburg, Germany, renin, angiotensin I, RIA Kit CA-1533, DiaSorin S.p.A., Italy, and aldosterone, P2714, DiaSorin S.p.A., Italy) and gene expression of biomarkers by RT/TaqMan PCR following RNA isolation from cardiac and renal tissue are determined.
Cardiac and cardiovascular disorders as well as renal and cardiorenal disorders are characterized by high patient morbidity and also high mortality. This morbidity and mortality, together with various risk factors such as hypertension, can be reproduced very accurately in the above-described animal model of the L-NAME-treated renin transgenic rat. Therefore, this animal model, for example, was used to investigate MR antagonists such as, for example, finerenone according to the compound of the formula (IV) and sGC stimulators such as, for example, the compound of the formula (X), and combinations of both: […]
For example, the MR antagonist finerenone, corresponding to the compound of the formula (IV), and the sGC stimulator, corresponding to the compound of the formula (X), were tested on their own and in combinations in TGR(mRen2)27 renin rats aged 10 to 20 weeks. In addition, the nitrogen monoxide synthase inhibitor L-NAME was administered via the drinking water in a concentration of 30 to 100 mg/l. During the entire experiment, drinking water and feed were available ad libitum to the animals. The substances were administered daily by gavage for 4-10 weeks. Animals treated in the same way but receiving only the solvent for the test substance served as placebo group. In the test series, in addition to placebo (group A), the MR antagonist finerenone corresponding to the compound of the formula (IV) (10 mg/kg od) (group B) and the sGC stimulator corresponding to the compound of the formula (X) (0.3 mg/kg od) (group C) on their own and a combination of finerenone corresponding to the compound of the formula (IV) (10 mg/kg od)+compound of the formula (X) (0.3 mg/kg od) (group D) were administered. In this study, 15 animals were used per group (A, B, C, D) (Table 1): […]

Compound	All-cause mortality during the study period [%]	Survival rate over the study period [%]	Reduction of proteinuria, measured as protein/creatinine quotient in urine [%]	Protein/creatine quotient - % of group A (proteinuria in % reduction from placebo)
COC(=O)Nc1c(N)nc(-c2nn(Cc3ccccc3F)c3ncc(F)cc23)nc1N [compound of the formula (X), methyl {4,6-diamino-2-[5-fluoro-1-(2-fluorobenzyl)-1H-pyrazolo[3,4-b]pyridin-3-yl]pyrimidin-5-yl}carbamate]	13	87	51	−51 + 20%
CCOc1ncc(C)c2c1[C@H](c1ccc(C#N)cc1OC)C(C(N)=O)=C(C)N2 [finerenone, (S)-4-(4-cyano-2-methoxyphenyl)-5-ethoxy-2,8-dimethyl-1,4-dihydro-1,6-naphthyridine-3-carboxamide]	20	80	58	−58 + 16%

From patent US11684621B2, “Combination containing sGC stimulators and mineralocorticoid receptor antagonists” (Bayer Pharma Aktiengesellschaft, priority 2016, dated 2023)
